Reference: patent US12662469B2 (SIRONAX LTD, priority 2018, dated 2026)

The compounds below were run on Cell Necrosis (assay: Cell necrosis assay / cell viability assay (necrosis inhibitor activity)). Conditions: necrosis inhibitor activity; compounds outside 14-191; read-out: EC50.
Format: cell-based

**Q.** Which EC50 does the source give for `N#Cc1cccc([C@@H]2CC=NN2C(=O)N2CC(=Cc3cc4c(cc3F)CC(=O)N4)C2)c1` [Compound 373, (S)-3-(1-(3-((5-fluoro-2-oxoindolin-6-yl)methylene)azetidine-1-carbonyl)-4,5-dihydro-1H-pyrazol-5-yl)benzonitrile] here?
**A.** 1 to 1000 nM

**Q.** For `O=C(N1CC(CN2Cc3cn[nH]c3C2)C1)N1N=CC[C@H]1c1cc(F)cc(F)c1` [Compound 375, (S)-(5-(3,5-difluorophenyl)-4,5-dihydro-1H-pyrazol-1-yl)(3-((4,6-dihydropyrrolo[3,4-c]pyrazol-5(1H)-yl)methyl)azetidin-1-yl)methanone], which EC50 is on record?
**A.** 1 to 1000 nM

**Q.** For `O=C(N1CC(Oc2cc3[nH]nc(F)c3cc2F)C1)N1N=CC[C@H]1c1cc(F)cc(F)c1` [Compound 376, (S)-(3-((3,5-difluoro-1H-indazol-6-yl)oxy)azetidin-1-yl)(5-(3,5-difluorophenyl)-4,5-dihydro-1H-pyrazol-1-yl)methanone], which EC50 is on record?
**A.** 1 to 1000 nM

**Q.** How did the EC50 turn out when `N#Cc1cc(F)cc([C@@H]2CC=NN2C(=O)N2CC(Oc3cc4[nH]nc(F)c4cc3F)C2)c1` [Compound 377, (S)-3-(1-(3-((3,5-difluoro-1H-indazol-6-yl)oxy)azetidine-1-carbonyl)-4,5-dihydro-1H-pyrazol-5-yl)-5-fluorobenzonitrile] was run?
**A.** 1 to 1000 nM

**Q.** For `O=C(N1CC(Oc2cc3[nH]nc(F)c3cc2F)C1)N1N=CCC1c1cncc(F)c1` (stereo not shown) [Compound 378, (3-((3,5-difluoro-1H-indazol-6-yl)oxy)azetidin-1-yl)(5-(5-fluoropyridin-3-yl)-4,5-dihydro-1H-pyrazol-1-yl)methanone], which EC50 is on record?
**A.** 1 to 1000 nM

**Q.** Which EC50 does the source give for `O=C(N1CC(Oc2cc3[nH]nc(F)c3cc2F)C1)N1N=CCC1c1ccccc1` (stereo not shown) [Compound 379, (3-((3,5-difluoro-1H-indazol-6-yl)oxy)azetidin-1-yl)(5-phenyl-4,5-dihydro-1H-pyrazol-1-yl)methanone] here?
**A.** 1 to 1000 nM

**Q.** `N#Cc1cccc(C2CC=NN2C(=O)N2CC(Oc3cc4[nH]nc(F)c4cc3F)C2)c1` (stereo not shown) [Compound 380, 3-(1-(3-((3,5-difluoro-1H-indazol-6-yl)oxy)azetidine-1-carbonyl)-4,5-dihydro-1H-pyrazol-5-yl)benzonitrile] was tested. Which EC50 did it give?
**A.** 1 to 1000 nM

**Q.** Which EC50 does the source give for `N#Cc1cncc(C2CC=NN2C(=O)N2CC(Oc3cc4[nH]nc(F)c4cc3F)C2)c1` (stereo not shown) [Compound 381, 5-(1-(3-((3,5-difluoro-1H-indazol-6-yl)oxy)azetidine-1-carbonyl)-4,5-dihydro-1H-pyrazol-5-yl)nicotinonitrile] here?
**A.** 1 to 1000 nM

**Q.** For `NCC#Cc1ccnc(N2CCN(C(=O)N3N=CCC3c3cc(F)cc(F)c3)CC2)n1` (stereo not shown) [Compound 382, (4-(4-(3-aminoprop-1-yn-1-yl)pyrimidin-2-yl)piperazin-1-yl)(5-(3,5-difluorophenyl)-4,5-dihydro-1H-pyrazol-1-yl)methanone frifluoroacetate], which EC50 is on record?
**A.** 1 to 1000 nM

**Q.** For `N#Cc1cnc2ccc(N3CCN(C(=O)N4N=CC[C@H]4c4cc(F)cc(F)c4)CC3)nn12` [Compound 383, (S)-6-(4-(5-(3,5-difluorophenyl)-4,5-dihydro-1H-pyrazole-1-carbonyl)piperazin-1-yl)imidazo[1,2-b]pyridazine-3-carbonitrile], which EC50 is on record?
**A.** 1 to 1000 nM

**Q.** Which EC50 does the source give for `Cc1nnc(N2CCN(C(=O)N3N=CC[C@H]3c3cc(F)cc(F)c3)CC2)s1` [Compound 384, (S)-(5-(3,5-difluorophenyl)-4,5-dihydro-1H-pyrazol-1-yl)(4-(5-methyl-1,3,4-thiadiazol-2-yl)piperazin-1-yl)methanone] here?
**A.** 1 to 1000 nM

**Q.** For `N#Cc1cnc(N2CCN(C(=O)N3N=CC[C@H]3c3cc(F)cc(F)c3)CC2)nc1` [Compound 385, (S)-2-(4-(5-(3,5-difluorophenyl)-4,5-dihydro-1H-pyrazole-1-carbonyl)piperazin-1-yl)pyrimidine-5-carbonitrile], which EC50 is on record?
**A.** 1 to 1000 nM

**Q.** `O=C1Cc2cnc(N3CCN(C(=O)N4N=CC[C@H]4c4cc(F)cc(F)c4)CC3)nc2N1` [Compound 386, (S)-2-(4-(5-(3,5-difluorophenyl)-4,5-dihydro-1H-pyrazole-1-carbonyl)piperazin-1-yl)-5,7-dihydro-6H-pyrrolo[2,3-d]pyrimidin-6-one] was tested. Which EC50 did it give?
**A.** 1 to 1000 nM
